Experiments:
[1] = test system: panel of cancer cell lines (CCRF-CEM, SKOV-3, MDA-MB-231, PC-3, DU-145, iSLK); assay: MTS cell viability assay, summary over the cancer cell line panel; type: cell-based; details: Homo sapiens; range over CCRF-CEM, MDA-MB-231, PC3, DU-145; read-out: IC50 against all the cancer cell lines (range)
Protocol: (§1) All the 14 hybrid compounds synthesized via Scheme 1, along with the intermediates and starting compounds, were tested in vitro for their cytotoxicity against a panel of 6 human cancer cell lines. This panel involved human leukemia carcinoma (CCRF-CEM), human ovarian adenocarcinoma (SKOV-3), human breast tumor (MDA-MB-231), human prostate cancer (PC-3), androgen-independent human prostate cancer (DU-145), and human renal carcinoma (iSLK) cell lines. The compounds were tested at a concentration of 25 μM for incubation periods of 24 and 72 h. Standard anticancer drug doxorubicin at a concentration of 5 μM and DMSO were used as controls in all the cell assays. The antiproliferative profile of benzopyran-4-one-isoxazole conjugates is shown in Figure 2 (cf. Supplementary Materials for the data obtained for intermediates and starting materials Figure S28.1–S28.6, page no. 71–76).
(§2) Cell viability assays were performed using the MTS protocol. The in vitro cytotoxicity of the conjugates was evaluated using six human cancer cell lines, one human normal kidney cell line, and one mammalian normal kidney cell line, which included human leukemia carcinoma cell lines (CCRF-CEM), human ovarian adenocarcinoma cell lines (SKOV-3), human breast tumor cell lines (MDA-MB-231), human prostate cancer cell lines (PC-3), androgen-independent human prostate cancer cell lines (DU-145), human renal carcinoma (iSLK), human embryonic kidney cell lines (HEK-293), and normal mammalian kidney cell line (LLCPK) to determine the toxicity of the synthesized conjugates. CCRF-CEM cells were seeded at 50,000 cells in 0.1 mL per well in 96-well plates, and in the case of SKOV-3, MDA-MB-231, PC-3, DU-145, HEK-293, and LLCPK cell lines, the cells were seeded at 5000 cells in 0.1 mL per well in 96-well plates. The CCRF-CEM cells were seeded in RPMI-1640 media containing 2mM L-glutamine, 1.5 g/L sodium bicarbonate, supplemented with fetal bovine serum (FBS) 10% media, SKOV-3, MDA-MB-231, and LLCPK cells were seeded in MEME media with Earle’s salts and sodium bicarbonate, without L-glutamine, supplemented with fetal bovine serum (FBS) 10%, PC-3 cells were seeded in DMEM:F-12 containing 1:1 mixture with L-glutamine with HEPES, supplemented with fetal bovine serum (FBS) 10%, and DU-145 and HEK-293 cells were seeded in DMEM containing 4500 mg/L glucose, L-glutamine, and sodium bicarbonate, without sodium pyruvate, supplemented with FBS (10%), 24 h prior to the experiment. The compounds at a final concentration of 25 µM (higher concentration stock solution prepared in DMSO) were added to each well in triplicate and incubated for 24 and 72 h at 37 °C in a humidified atmosphere (95% air and 5% CO2). The cell viability was then determined by measuring the absorbance of the formazan product at 490 nm using a microplate reader using a SpectraMax M2 microplate spectrophotometer, Molecular Devices, San Jose, CA, USA. The percentage of cell survival was calculated as [(OD value of cells treated with the test mixture of compounds) − (OD value of culture medium)]/[(OD value of control cells) − (OD value of culture medium)] × 100%. IC50 values of compounds were calculated using non-linear regression analysis in GraphPad Prism (Boston, MA, USA).

[2] = test system: human embryonic kidney (HEK-293) cell lines; assay: MTS cell viability assay, non-cancerous cells; type: cell-based; details: for IC50: average of three independent tests in triplicate; for inhibition at 25 µM: HEK293, conjugates at 25 μM, 72 h
From the text: (§3) The compounds were further screened for their in vitro cytotoxicity against non-cancerous normal cell lines, viz., human embryonic kidney (HEK-293) and normal pig kidney (LLCPK) cell lines. These cell lines were selected to determine whether the compounds had selectivity against cancerous cells in contrast to non-cancerous cells. The data obtained is shown in Figure 3a–b (cf. Supplementary Materials for the data obtained for intermediates and starting materials Figure S28.7–S28.8, page no. 77–78).
as §2

[3] = test system: normal pig kidney (LLCPK) cell lines; assay: MTS cell viability assay, non-cancerous cells; type: cell-based; details: Sus scrofa, 72 h
From the text: as §3, §2

[4] = test system: human prostate cancer (PC-3) cell lines; assay: MTS cell viability assay; type: cell-based; details: for IC50: PC3, average of three independent tests in triplicate; for inhibition at 25 µM: conjugates at 25 μM
Protocol: as §1, §2

[5] = test system: human leukemia carcinoma (CCRF-CEM) cell lines; assay: MTS cell viability assay; type: cell-based; details: for inhibition at 25 µM: conjugates at 25 μM; for IC50: average of three independent tests in triplicate
Protocol: as §1, §2

[6] = test system: human renal carcinoma (iSLK) cell lines; assay: MTS cell viability assay; type: cell-based; details: 72 h; for inhibition at 25 µM: Homo sapiens, conjugates at 25 μM, read-out: Inhibition of Cancer Cell Lines iSLK
Protocol: as §1, §2

[7] = test system: human ovarian adenocarcinoma (SKOV-3) cell lines; assay: MTS cell viability assay; type: cell-based; details: 72 h, read-out: Inhibition of Cancer Cell Lines SKOV-3; for inhibition at 25 µM: SK-OV-3, conjugates at 25 μM
Protocol: as §1, §2

[8] = test system: androgen-independent human prostate cancer (DU-145) cell lines; assay: MTS cell viability assay; type: cell-based; details: for IC50: average of three independent tests in triplicate; for inhibition at 25 µM: conjugates at 25 μM
Protocol: as §1, §2

[9] = test system: human breast tumor (MDA-MB-231) cell lines; assay: MTS cell viability assay; type: cell-based; details: for IC50: average of three independent tests in triplicate; for inhibition at 25 µM: conjugates at 25 μM
Protocol: as §1, §2

[10] = test system: human embryonic kidney (HEK-293) cell lines; assay: MTS cell viability assay, non-cancerous cells; type: cell-based; details: HEK293, Dox at 5 μM, 72 h
[11] = test system: MDA-MB-231 cells; assay: Annexin V-FITC/PI apoptosis assay by flow cytometry; type: cell-based, human; details: MDA-MB-231, 5 μM, 72 h
Protocol: In accordance with the MTS assay, compound 5a had promising antiproliferative action. Therefore, we attempted to study the mechanism triggering cell death. […] MDA-MB-231 cells were treated with 5 μM of compound 5a and Dox (5 μM) as a positive control and incubated for 72 h, then double-stained carefully by membrane-linked protein Annexin-V fluorescein isothiocyanate (FITC) and propidium iodide (PI) for flow cytometry analysis. Normally, in the early stages of apoptosis, phosphatidylserine flips from the inner cell membrane to the surface of the cell membrane. […] PI is a nucleic acid dye that can only cross the membrane of advanced apoptosis and necrotic cells and redden the nucleus. Consequently, when the treated cells are double stained by the two fluorescent dyes, early and late apoptosis and necrotic cells can be clearly distinguished. […] These findings illustrated that compound 5a mainly leads to the early apoptosis of MDA-MB-231 cells.
The assay was detected using a commercially available kit (FITC Annexin V Apoptosis Detection Kit II, BD Biosciences, San Jose, CA, USA) per the manufacturer’s instructions. Briefly, MDA-MB-231 cells were seeded in 6-well plates at a concentration of 1 × 10^6 cells/well for 24 h; after that, cells were treated with 5a (5 µM) for 72 h. Dox (5 µM) was used as a positive control. After the treatment period, cells were washed with cold phosphate-buffered saline (PBS) twice. The cells were collected after trypsin treatment and centrifugated to get a pellet, and a binding buffer (1X) was used to resuspend the cells. Annexin V (5 μL) and propidium iodide (PI) (5 μL) were mixed with 100 μL of the suspended cells (1 × 10^6 cells/mL), followed by 15 min incubation at room temperature in the dark. The mixture was diluted by adding 400 μL of 1× binding buffer, and the cells were analyzed using flow cytometry, FACS Verse (BD Biosciences, USA). The experiment was repeated three times independently.

[12] = target: phosphatidylinositol 3-kinase (PI3K); set-up: method as in PMID 8106507; details: cellular; cited from earlier work
[13] = Homo sapiens, HEK293, normal HEK-293 cells
[14] = Homo sapiens, CCRF-CEM, 72 h, read-out: Inhibition of Cancer Cell Lines CCRF-CEM
[15] = 72 h, read-out: Inhibition of Cancer Cell Lines MDA-MB-231

Row | IC50 [1] [µM] | IC50 [4] [µM] | IC50 ([5]; Homo sapiens, CCRF-CEM) [µM] | IC50 [8] [µM] | IC50 [9] [µM] | SMILES | IC50 [2, 13] [µM] | inhibition at 25 µM ([2]; Homo sapiens) [%] | IC50 ([2]; normal HEK-293 cells) [µM] | inhibition at 25 µM ([4]; 72 h) [%] | inhibition at 25 µM [5, 14] [%] | inhibition at 25 µM [6] [%] | inhibition at 25 µM [7] [%] | inhibition at 25 µM ([8]; 72 h) [%] | inhibition at 25 µM [9, 15] [%] | further results
1 | 5.2 to 16.1 | 12.7 | 16.2 | 14.6 | 5.26 | COc1ccc2c(=O)c(COC(=O)c3c(C)noc3C)coc2c1 [Compound 5d, (7-Methoxy-4-oxo-4H-1-benzopyran-3-yl)methyl 3,5-dimethylisoxazole-4-carboxylate] | 192 | 40 | 102 | 75 | 82 | 42 | 48 | 79 | 76 | inhibition at 25 µM ([3]; conjugates at 25 μM): 18%
2 | 3.3 to 12.9 | 12.9 | 3.31 | 12.2 | 11 | COc1ccc2occ(COC(=O)c3c(C)noc3C)c(=O)c2c1 [Compound 5c, (6-Methoxy-4-oxo-4H-1-benzopyran-3-yl)methyl 3,5-dimethylisoxazole-4-carboxylate] | 222 | 38 |  | 74 | 83 | 31 | 45 | 81 | 70 | fold potency for CCRF-CEM cell lines ([5]; compared to 5a, 5b, and 5d, from IC50): 3–12 fold
3 | 14.8 to 51.1 | 14.8 | 36.5 | 51.1 | 22.2 | COc1cccc2occ(COC(=O)c3c(C)noc3C)c(=O)c12 [Compound 5b, (5-Methoxy-4-oxo-4H-1-benzopyran-3-yl)methyl 3,5-dimethylisoxazole-4-carboxylate] | 102 | 34 | 192 | 75 | 83 | 23 | 42 | 50 | 60 | 

Second part, the compound before the results:

Row | SMILES | IC50 [1] [µM] | IC50 [4] [µM] | IC50 ([5]; Homo sapiens, CCRF-CEM) [µM] | IC50 [8] [µM] | IC50 [9] [µM] | IC50 [2, 13] [µM] | inhibition at 25 µM ([2]; Homo sapiens) [%] | IC50 ([2]; normal HEK-293 cells) [µM] | inhibition at 25 µM ([4]; 72 h) [%] | inhibition at 25 µM [5, 14] [%] | inhibition at 25 µM [6] [%] | inhibition at 25 µM [7] [%] | inhibition at 25 µM ([8]; 72 h) [%] | inhibition at 25 µM [9, 15] [%] | further results
4 | COc1cccc2c1C(=O)c1c(O)c3c(c(O)c1C2=O)C[C@@](O)(C(=O)CO)C[C@@H]3O[C@H]1C[C@H](N)[C@H](O)[C@H](C)O1 [doxorubicin, reference compound] |  |  |  |  |  |  |  |  |  |  |  |  |  |  | inhibition at 5 µM [10]: 43%; inhibition at 5 µM ([3]; Dox at 5 μM): 74%; Early Apoptosis [11]: 61.15%; Late Apoptosis [11]: 28.29%; inhibition at 5 µM ([4]; Dox at 5 μM, 72 h): 54%; inhibition at 5 µM ([5]; Homo sapiens, CCRF-CEM, Dox at 5 μM, 72 h, read-out: Inhibition of Cancer Cell Lines CCRF-CEM): 82%; Inhibition of Cancer Cell Lines iSLK ([6]; Dox at 5 μM): NIL; inhibition at 5 µM ([7]; SK-OV-3, Dox at 5 μM): 62%; inhibition at 5 µM ([8]; Dox at 5 μM, 72 h): 57%; inhibition at 5 µM ([9]; Dox at 5 μM, 72 h, read-out: Inhibition of Cancer Cell Lines MDA-MB-231): 73%
5 | O=c1cc(N2CCOCC2)oc2c(-c3ccccc3)cccc12 [LY294002, 2-(4-Morpholinyl)-8-Phenyl-4H-1-Benzopyran-4-One] |  |  |  |  |  |  |  |  |  |  |  |  |  |  | IC50 [12]: ~1.4 µM

Source: publication PMC10224329, “Design, Synthesis, and Antiproliferative Activity of Benzopyran-4-One-Isoxazole Hybrid Compounds” (Molecules, 2023)
